Experimental data: the NIST ThermoML archive (doi:10.1021/je049610v)
“And” between values parts separate entries of the source, which are not always exact repeats. Identical values can stand only once.

Assays:
[1] = 101 kPa, Liquid
[2] = refractive index (Na D-line) (dimensionless); conditions: 101.33 kPa, Liquid
[3] = xn = mol fraction of the nth substance listed; conditions: 101 kPa, Liquid
[4] = refractive index (Na D-line) (dimensionless); xn = mol fraction of the nth substance listed; conditions: 101 kPa, Liquid

C[S+](C)[O-] [dimethyl sulfoxide]
Conditions	mass density, 298.15 K [kg/m3]	mass density, 303.15 K [kg/m3]	mass density, 308.15 K [kg/m3]	refractive index, 298.15 K	speed of sound, 298.15 K [m/s]	viscosity, 298.15 K [mPa·s]	viscosity, 303.15 K [mPa·s]	viscosity, 308.15 K [mPa·s]
[1]	1095.4	1090.8	1086.2	–	1493	1.984	1.801	1.651
[2]	–	–	–	1.4768	–	–	–	–

CN(C)C=O [dimethylformamide]
Conditions	mass density, 298.15 K [kg/m3]	mass density, 303.15 K [kg/m3]	mass density, 308.15 K [kg/m3]	refractive index, 298.15 K	refractive index, 303.15 K	refractive index, 308.15 K	speed of sound, 298.15 K [m/s]	viscosity, 298.15 K [mPa·s]	viscosity, 303.15 K [mPa·s]	viscosity, 308.15 K [mPa·s]
[1]	943.9	939.5	935	–	–	–	1462	0.801	0.754	0.711
[2]	–	–	–	1.4288	1.4264	1.4238	–	–	–	–

CCOC(=O)C(=O)OCC [diethyl ethanedioate]
Conditions	mass density, 298.15 K [kg/m3]	mass density, 303.15 K [kg/m3]	mass density, 308.15 K [kg/m3]	refractive index, 298.15 K	refractive index, 303.15 K	refractive index, 308.15 K	speed of sound, 298.15 K [m/s]	viscosity, 298.15 K [mPa·s]	viscosity, 303.15 K [mPa·s]	viscosity, 308.15 K [mPa·s]
[1]	1072.3	1066.6	1060.7	–	–	–	1267	1.844	1.659	1.508
[2]	–	–	–	1.4084	1.4061	1.4039	–	–	–	–

ClC(Cl)C(Cl)Cl [1,1,2,2-tetrachloroethane]
Conditions	mass density, 298.15 K [kg/m3]	mass density, 303.15 K [kg/m3]	mass density, 308.15 K [kg/m3]	refractive index, 298.15 K	refractive index, 303.15 K	refractive index, 308.15 K	speed of sound, 298.15 K [m/s]	viscosity, 298.15 K [mPa·s]	viscosity, 303.15 K [mPa·s]	viscosity, 308.15 K [mPa·s]
[1]	1587.8	1580.6	1573.3	–	–	–	1153	1.591	1.471	1.361
[2]	–	–	–	1.4922	1.4894	1.4865	–	–	–	–

OCCCl [1-chloro-2-hydroxyethane]
Conditions	mass density, 298.15 K [kg/m3]	mass density, 303.15 K [kg/m3]	mass density, 308.15 K [kg/m3]	refractive index, 298.15 K	refractive index, 303.15 K	refractive index, 308.15 K	speed of sound, 298.15 K [m/s]	viscosity, 298.15 K [mPa·s]	viscosity, 303.15 K [mPa·s]	viscosity, 308.15 K [mPa·s]
[1]	1200.9	1192.5	1187.1	–	–	–	1358	3.104	2.669	2.347
[2]	–	–	–	1.4411	1.438	1.4326	–	–	–	–

COc1ccccc1 [anisole]
Conditions	mass density, 298.15 K [kg/m3]	mass density, 303.15 K [kg/m3]	mass density, 308.15 K [kg/m3]	refractive index, 298.15 K	refractive index, 303.15 K	refractive index, 308.15 K	speed of sound, 298.15 K [m/s]	viscosity, 298.15 K [mPa·s]	viscosity, 303.15 K	viscosity, 308.15 K [mPa·s]
[1]	988.9	984.1	979.4	–	–	–	1410	0.992	0.919 mPa·s and 0.918 mPa·s	0.853
[2]	–	–	–	1.5148	1.5124	1.5092	–	–	–	–

ClC(Cl)=C(Cl)Cl [tetrachloroethene]
Conditions	mass density, 298.15 K [kg/m3]	mass density, 303.15 K [kg/m3]	mass density, 308.15 K [kg/m3]	refractive index, 298.15 K	refractive index, 303.15 K	refractive index, 308.15 K	speed of sound, 298.15 K [m/s]	viscosity, 298.15 K [mPa·s]	viscosity, 303.15 K [mPa·s]	viscosity, 308.15 K [mPa·s]
[1]	1614.7	1606.9	1599	–	–	–	1038	0.861	0.817	0.782
[2]	–	–	–	1.5036	1.501	1.498	–	–	–	–

C1COCCO1 [1,4-dioxane]
Conditions	mass density, 298.15 K [kg/m3]	mass density, 303.15 K [kg/m3]	mass density, 308.15 K [kg/m3]	refractive index, 298.15 K	refractive index, 303.15 K	refractive index, 308.15 K	speed of sound, 298.15 K [m/s]	viscosity, 298.15 K [mPa·s]	viscosity, 303.15 K [mPa·s]	viscosity, 308.15 K [mPa·s]
[1]	1028.3	1023.1	1017.8	–	–	–	1345	1.415	1.171	1.068
[2]	–	–	–	1.4181	1.4176	1.4141	–	–	–	–

OCCCl [1-chloro-2-hydroxyethane] + COc1ccccc1
Conditions	mass density, 298.15 K [kg/m3]	mass density, 303.15 K [kg/m3]	mass density, 308.15 K [kg/m3]	refractive index, 298.15 K	refractive index, 303.15 K	refractive index, 308.15 K	speed of sound, 298.15 K [m/s]	viscosity, 298.15 K [mPa·s]	viscosity, 303.15 K [mPa·s]	viscosity, 308.15 K [mPa·s]
[3], x2 = 0	1200.9	1192.5	1187.1	–	–	–	1358	3.104	2.669	2.347
[3], x2 = 0.103	1165.8	1158.6	1153.9	–	–	–	1365	2.6	2.334	2.068
[3], x2 = 0.209	1134.5	1129	1123.7	–	–	–	1372	2.13	1.943	1.755
[3], x2 = 0.313	1107.6	1102.5	1097.5	–	–	–	1378	1.778	1.631	1.485
[3], x2 = 0.395	1088.7	1083.9	1078.8	–	–	–	1382	1.583	1.452	1.32
[3], x2 = 0.49	1068.8	1064.3	1058.9	–	–	–	1388	1.418	1.289	1.16
[3], x2 = 0.59	1049.8	1044.8	1040.1	–	–	–	1392	1.269	1.158	1.046
[3], x2 = 0.69	1032.5	1027.5	1023	–	–	–	1397	1.155	1.064	0.972
[3], x2 = 0.797	1015.9	1010	1006.6	–	–	–	1402	1.087	1.004	0.921
[3], x2 = 0.898	1001.9	996.1	992.5	–	–	–	1406	1.007	0.936	0.865
[4], x2 = 0	–	–	–	1.4411	1.438	1.4326	–	–	–	–
[4], x2 = 0.103	–	–	–	1.4495	1.4793	1.4468	–	–	–	–
[4], x2 = 0.209	–	–	–	1.461	1.4586	1.4564	–	–	–	–
[4], x2 = 0.313	–	–	–	1.4712	1.4684	1.4652	–	–	–	–
[4], x2 = 0.395	–	–	–	1.4767	1.4745	1.4723	–	–	–	–
[4], x2 = 0.49	–	–	–	1.4836	1.4807	1.4778	–	–	–	–
[4], x2 = 0.59	–	–	–	1.4899	1.4879	1.4859	–	–	–	–
[4], x2 = 0.69	–	–	–	1.4978	1.4951	1.4923	–	–	–	–
[4], x2 = 0.797	–	–	–	1.5034	1.5011	1.4999	–	–	–	–
[4], x2 = 0.898	–	–	–	1.5094	1.5067	1.5041	–	–	–	–

CN(C)C=O [dimethylformamide] + COc1ccccc1
x2 = 0
Conditions	mass density, 298.15 K [kg/m3]	mass density, 303.15 K [kg/m3]	mass density, 308.15 K [kg/m3]	refractive index, 298.15 K	refractive index, 303.15 K	refractive index, 308.15 K	speed of sound, 298.15 K [m/s]	viscosity, 298.15 K [mPa·s]	viscosity, 303.15 K [mPa·s]	viscosity, 308.15 K [mPa·s]
[3]	943.9	939.5	935	–	–	–	1462	0.801	0.754	0.711
[4]	–	–	–	1.4288	1.4264	1.4238	–	–	–	–

CCOC(=O)C(=O)OCC [diethyl ethanedioate] + COc1ccccc1
Conditions	mass density, 298.15 K [kg/m3]	mass density, 303.15 K [kg/m3]	mass density, 308.15 K [kg/m3]	refractive index, 298.15 K	refractive index, 303.15 K	refractive index, 308.15 K	speed of sound, 298.15 K [m/s]	viscosity, 298.15 K [mPa·s]	viscosity, 303.15 K [mPa·s]	viscosity, 308.15 K [mPa·s]
[3], x2 = 0	1072.3	1066.6	1060.7	–	–	–	1267	1.844	1.659	1.508
[3], x2 = 0.1017	1065.8	1060.1	1054.3	–	–	–	1280	1.732	1.578	1.424
[3], x2 = 0.1976	1059.5	1053.8	1048.1	–	–	–	1293	1.64	1.497	1.354
[3], x2 = 0.2978	1052.6	1047.1	1041.4	–	–	–	1307	1.55	1.416	1.282
[3], x2 = 0.3621	1047.7	1042.3	1036.7	–	–	–	1316	1.495	1.367	1.239
[3], x2 = 0.4971	1037.4	1031.9	1026.5	–	–	–	1334	1.38	1.265	1.149
[3], x2 = 0.5975	1029.1	1023.8	1018.5	–	–	–	1348	1.301	1.195	1.089
[3], x2 = 0.6977	1020.1	1014.9	1009.7	–	–	–	1362	1.223	1.126	1.03
[3], x2 = 0.8016	1010.1	1005.3	1000	–	–	–	1377	1.14	1.054	0.968
[3], x2 = 0.9007	999.9	995.4	990.2	–	–	–	1393	1.061	0.985	0.91
[4], x2 = 0	–	–	–	1.4084	1.4061	1.4039	–	–	–	–
[4], x2 = 0.1017	–	–	–	1.4171	1.4148	1.4124	–	–	–	–
[4], x2 = 0.1976	–	–	–	1.4257	1.4232	1.4207	–	–	–	–
[4], x2 = 0.2978	–	–	–	1.435	1.4325	1.43	–	–	–	–
[4], x2 = 0.3621	–	–	–	1.4412	1.4388	1.4362	–	–	–	–
[4], x2 = 0.4971	–	–	–	1.4551	1.4525	1.4499	–	–	–	–
[4], x2 = 0.5975	–	–	–	1.466	1.4634	1.4607	–	–	–	–
[4], x2 = 0.6977	–	–	–	1.4773	1.4746	1.4718	–	–	–	–
[4], x2 = 0.8016	–	–	–	1.4896	1.4868	1.484	–	–	–	–
[4], x2 = 0.9007	–	–	–	1.5021	1.4991	1.4962	–	–	–	–
